Data taken from the CheMixHub viscosity set.

Test: xn = mol fraction of the nth substance listed

CCCCCCCCCCCCCC[P+](CCCCCC)(CCCCCC)CCCCCC.c1c[n-]nn1 + CCCCCCn1cc[n+](C)c1.O=S(=O)([N-]S(=O)(=O)C(F)(F)F)C(F)(F)F
viscosity [mPa·s], 100 kPa
Settings	293.15 K	298.15 K	303.15 K	308.15 K	313.15 K	318.15 K	323.15 K
x1 = 0.151	159	122	96	77	62	51	–
x1 = 0.302	268	200	152	119	94	76	62
x1 = 0.42	402	294	219	168	131	104	84
x1 = 0.55	498	358	262	197	151	118	94
x1 = 0.652	614	437	317	236	180	139	109
x1 = 0.7	725	511	369	274	206	159	125
x1 = 0.865	744	527	382	284	215	166	131

C1C[C@@H]2[C@H]3CC[C@H](C3)[C@@H]2C1 + CCCCCO
viscosity [mPa·s], 101 kPa
Settings	x2 = 0.1465	x2 = 0.2782	x2 = 0.3987	x2 = 0.5049	x2 = 0.6067	x2 = 0.6985	x2 = 0.7827	x2 = 0.8623	x2 = 0.9326
293.15 K	2.919	2.901	2.955	3.058	3.19	3.372	3.549	3.718	3.916
298.15 K	2.621	2.595	2.622	2.7	2.807	2.953	3.095	3.27	3.411
303.15 K	2.379	2.346	2.354	2.41	2.487	2.607	2.726	2.852	2.971
313.15 K	1.972	1.92	1.914	1.922	1.957	2.033	2.107	2.18	2.253

CC(=O)C=C(C)C + CCCCCOC(C)=O
298.15 K, 101 kPa
Settings	viscosity [mPa·s]
x1 = 0.11	0.7593
x1 = 0.167	0.7461

CCC(=O)O + CCCCN(CCCC)CCCC
viscosity [mPa·s], 101.33 kPa
Settings	x1 = 0.1	x1 = 0.2	x1 = 0.3	x1 = 0.4	x1 = 0.5	x1 = 0.6	x1 = 0.7	x1 = 0.8	x1 = 0.9
293.15 K	1.867	–	–	–	6.422	12.71	26.1	23.66	6.57
298.15 K	1.389	1.676	2.303	3.571	5.447	10.24	20.63	19.13	5.91
303.15 K	1.228	1.495	1.923	3.107	4.591	8.37	16.9	15.79	4.93
308.15 K	1.112	1.342	1.728	2.693	3.887	7.04	13.12	13.19	4.33
313.15 K	1.015	1.212	1.523	2.359	3.372	5.67	10.81	10.94	3.79
318.15 K	0.938	1.096	1.361	2.071	2.954	5.03	8.92	9.32	3.39
323.15 K	0.878	0.994	1.245	1.839	2.557	4.35	7.55	8.06	3.04

C1C[C@@H]2[C@H]3CC[C@H](C3)[C@@H]2C1 + CCCCO
viscosity [mPa·s], 101 kPa
Settings	x2 = 0.1697	x2 = 0.3148	x2 = 0.4378	x2 = 0.5481	x2 = 0.6472	x2 = 0.7336	x2 = 0.8102	x2 = 0.8799	x2 = 0.9439
293.15 K	2.796	2.675	2.646	2.66	2.694	2.743	2.807	2.855	2.906
298.15 K	2.513	2.397	2.354	2.355	2.372	2.416	2.465	2.505	2.543
303.15 K	2.282	2.177	2.128	2.118	2.135	2.165	2.211	2.242	2.272
313.15 K	1.882	1.773	1.708	1.685	1.682	1.7	1.719	1.743	1.766

CCC(=O)O + CCCCO
308.15 K, 101 kPa
Settings	viscosity [mPa·s]
x1 = 0.0503	1.834
x1 = 0.1016	1.791
x1 = 0.1477	1.736
x1 = 0.1995	1.695
x1 = 0.301	1.556
x1 = 0.4	1.482
x1 = 0.5007	1.402
x1 = 0.5993	1.312
x1 = 0.7006	1.222
x1 = 0.7995	1.12
x1 = 0.9007	1.02

CCCCCCCCCCCCC + CCCCO
viscosity [mPa·s], 100 kPa
Settings	x1 = 0.1001	x1 = 0.2009	x1 = 0.2975	x1 = 0.3918	x1 = 0.5054	x1 = 0.6051	x1 = 0.7	x1 = 0.7984	x1 = 0.8908
293.15 K	2.584	2.319	2.148	2.004	1.901	1.841	1.807	1.788	1.829
298.15 K	2.271	2.051	1.905	1.789	1.703	1.644	1.63	1.617	1.668
303.15 K	2.006	1.821	1.701	1.606	1.535	1.489	1.48	1.469	1.522
308.15 K	1.782	1.625	1.524	1.448	1.391	1.353	1.351	1.342	1.386
313.15 K	1.591	1.459	1.374	1.312	1.268	1.246	1.239	1.231	1.265
318.15 K	1.426	1.314	1.245	1.194	1.161	1.152	1.139	1.133	1.158
323.15 K	1.283	1.19	1.132	1.092	1.066	1.059	1.052	1.048	1.068

ClCCCCCl + CCCCO
viscosity [mPa·s], 101 kPa
Settings	x1 = 0.0988	x1 = 0.1965	x1 = 0.2919	x1 = 0.3955	x1 = 0.4961	x1 = 0.5978	x1 = 0.6964	x1 = 0.7945	x1 = 0.8982
298.15 K	2.129	1.827	1.61	1.455	1.338	1.265	1.221	1.204	1.213
313.15 K	1.485	1.3	1.17	1.077	1.012	0.9721	0.9502	0.9443	0.9674

Nc1cccc(Cl)c1 + CCCCO
viscosity [mPa·s], 101 kPa
Settings	x1 = 0.0884	x1 = 0.1792	x1 = 0.2723	x1 = 0.368	x1 = 0.4662	x1 = 0.5671	x1 = 0.6708	x1 = 0.7774	x1 = 0.8871
303.15 K	2.47	2.654	2.84	3.03	3.219	3.412	3.607	3.806	4.02
308.15 K	2.198	2.371	2.546	2.72	2.895	3.073	3.253	3.441	3.635
313.15 K	1.966	2.128	2.284	2.441	2.598	2.759	2.923	3.091	3.261
318.15 K	1.761	1.911	2.052	2.19	2.328	2.468	2.61	2.756	2.897

O=C(O)c1ccccc1O + CCCCO
viscosity [mPa·s]
Settings	308.15 K	313.15 K	318.15 K	323.15 K
101 kPa, x1 = 0.14	2.453	–	–	–
101 kPa, x1 = 0.173	2.656	–	–	–
101 kPa, x1 = 0.193	2.761	–	–	–
101.33 kPa, x1 = 0.14	2.453	2.187	1.951	1.736
101.33 kPa, x1 = 0.193	2.761	2.375	2.154	1.928

Nc1cccc(Cl)c1 + CCCCOCCO
303.15 K, 101 kPa
Settings	viscosity [mPa·s]
x1 = 0.1347	2.958
x1 = 0.2158	3.022
x1 = 0.3353	3.099
x1 = 0.4394	3.15
x1 = 0.5555	3.192
x1 = 0.6554	3.214
x1 = 0.7157	3.226
x1 = 0.8263	3.239
x1 = 0.912	3.242

CC(=O)CCC(=O)O + CCCC[N+](CCCC)(CCCC)CCCC.[Br-]
viscosity [mPa·s], 101 kPa
Settings	293.15 K	298.15 K	303.15 K	308.15 K	313.15 K	318.15 K	323.15 K
x1 = 0.75	376.5	–	175.1	–	93.88	–	53.38
x2 = 0.25	–	261.9	169.6	118.6	89.13	64.47	46.13
